pIC50: −log10 of the molar value.
What was measured:
[1] = biological target: T1, Bovine lysyl oxidase (LOX) (Bos taurus, UniProt P33072); assay: LOX inhibition assay (fluorometric, cadaverine/Amplex Red/HRP); type: biochemical; conditions: IC50 class; bovine tendon LOX, cadaverine substrate; read-out: Activity Range LOX
T1 construct: from tissue; host or cells: adult bovine tendon
T1 sequence (P33072 170-418): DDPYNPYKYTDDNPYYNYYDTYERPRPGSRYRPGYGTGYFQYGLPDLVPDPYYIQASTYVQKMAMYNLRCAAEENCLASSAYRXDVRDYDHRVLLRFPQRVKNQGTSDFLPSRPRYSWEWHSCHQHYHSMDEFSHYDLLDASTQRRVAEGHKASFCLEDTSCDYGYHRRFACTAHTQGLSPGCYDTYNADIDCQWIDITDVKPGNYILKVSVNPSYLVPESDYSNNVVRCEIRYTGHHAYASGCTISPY
Method: (§1) The ability of compounds to inhibit prototypic LOX was determined using a fluorometric assay. This assay measures the activity of lysyl oxidases by coupling the reaction with horseradish peroxidase-catalyzed […]. The activity assay protocol uses cadaverine as substrate that releases hydrogen peroxide upon transformation by prototypic LOX enzyme present in the sample. Hydrogen peroxide is in turn detected using a red fluorescence substrate for HRP-coupled reactions (Amplex Red Enzyme Assays, Thermo Scientific Fisher). This leads to increase in fluorescence that can be easily detected at Ex/Em=540/590 nm in a fluorescence microplate reader.
Enzyme: Bovine lysyl oxidase (LOX) was extracted by adapting the methodology from [Kagan et al. 1979 and Borel et al. 2001.] from bovine tendon: Frozen adult bovine tendon was placed in room temperature water to defrost, and then membranes were removed and the remaining tissue cut into 1 cm pieces. The material was first passed through a course mesh meat grinder, and this mince was passed through a fine mesh grinder. The mince was homogenized in 10 v/w of buffer (16 mM sodium phosphate buffer pH 7.8, 400 mM NaCl) using a Waring blender. The homogenate was centrifuged at 15,000×g for 15 min at 4° C. After centrifugation, the supernatant was discarded and the pellets resuspended in 10 volumes of the same buffer. The mixture was blended again and centrifuged with the same settings. This time the pellets were blended in 3 volumes of extraction buffer (16 mM sodium phosphate buffer pH 7.8) and left to incubate at 4° C. for 2 h. After this time, the slurry was centrifuged with the same settings as described above. The supernatant was used in an ultrafiltration step to remove large proteins by size exclusion through a 30 kDalton filter (EMD Millipore). The filtrate was mixed with DEAE Sephadex (GE Healthcare), or passed over a MonoQ FPLC column. After two washes, one in 16 mM sodium phosphate buffer pH 7.8, 380 mM NaCl, and another in 16 mM sodium phosphate buffer pH 7.8, the proteins were eluted with 16 mM sodium phosphate pH 7.8, 10 μM CuSO4, and 4 M urea. Fractions containing Lox activity were collected and stored frozen at −70° C.
Reaction: Final concentration in the LOX assay was as following and performed in a total volume of […]:
Experimental procedure: 7 μl of freshly prepared reaction buffer were delivered to reaction wells. Compounds were resuspended in 100% DMSO at 10 mM and delivered into buffer using acoustic technology (Echo550; nanoliter range). A 2.85× solution of LOX protein in reaction buffer was prepared (“LOX solution”) and 7 μl of LOX solution was added into the reaction wells. Buffer only was added to column 1 for no protein control. Reactions were incubated for 30 minutes at 37° C. A 3.33× mixture of cadaverine, Amplex Red, and HRP (“Substrate/Detection Mix) was prepared and subsequently 6 μL of the mixture was added to each reaction well. Progress of reactions was monitored for 120 minutes at 37° C. using Clariostar plate reader (ex530-12, ems 600-40). For all activity assays, pan-LOX inhibitor CCT365623 (Tang et al, 2017) and LOXL2/LOXL3 inhibitor PAT-1251 (PharmaKea) were included as standards.
Data analysis: Slope of the linear portion of the progress curve was calculated using Clariostar software. Typical analysis interval was between 20-50 min, but varied between experiments. The background subtracted signals (No protein wells were considered as background) were converted to % activity relative to DMSO controls. Data was analyzed using GraphPad Prism 4 with “sigmoidal dose-response (variable slope)”; 4 parameters with Hill Slope. Constraints: Bottom=Constant equal to 0. Top=Must be less than 120.

[2] = biological target: T2, Recombinant human LOXL2 (lysyl oxidase like 2) (Homo sapiens, UniProt Q9Y4K0); assay: LOXL2 inhibition assay (fluorometric, cadaverine/Amplex Red/HRP); type: biochemical; conditions: IC50 class; recombinant human LOXL2, cadaverine substrate; read-out: Activity Range LOXL2
T2 construct: purchased R&D systems
T2 sequence (Q9Y4K0 26-774): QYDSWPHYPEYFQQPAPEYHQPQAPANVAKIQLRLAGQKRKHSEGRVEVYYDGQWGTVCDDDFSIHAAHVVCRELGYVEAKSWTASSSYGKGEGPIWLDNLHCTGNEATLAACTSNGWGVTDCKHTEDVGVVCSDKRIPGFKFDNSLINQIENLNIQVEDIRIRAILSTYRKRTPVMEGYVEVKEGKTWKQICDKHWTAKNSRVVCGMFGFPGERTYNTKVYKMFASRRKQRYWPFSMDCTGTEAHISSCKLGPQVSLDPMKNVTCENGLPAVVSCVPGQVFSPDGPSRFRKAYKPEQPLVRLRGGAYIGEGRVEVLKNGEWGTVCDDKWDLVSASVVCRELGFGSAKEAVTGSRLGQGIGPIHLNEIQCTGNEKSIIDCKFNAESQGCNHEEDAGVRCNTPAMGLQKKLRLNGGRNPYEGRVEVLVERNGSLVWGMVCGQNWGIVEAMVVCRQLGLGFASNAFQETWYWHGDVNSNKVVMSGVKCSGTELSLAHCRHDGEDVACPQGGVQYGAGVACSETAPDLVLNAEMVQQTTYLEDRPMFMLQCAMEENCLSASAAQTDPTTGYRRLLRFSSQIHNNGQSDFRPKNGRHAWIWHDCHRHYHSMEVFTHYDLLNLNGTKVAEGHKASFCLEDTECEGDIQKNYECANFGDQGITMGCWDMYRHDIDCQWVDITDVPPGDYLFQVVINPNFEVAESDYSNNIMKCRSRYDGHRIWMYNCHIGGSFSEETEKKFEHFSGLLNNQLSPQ
Method: as §1, with “inhibit one or more of the lysyl oxidases LOXL2 and/or LOXL3” for “inhibit prototypic LOX”, “by the specific” for “by prototypic”, “LOX family” for “LOX”
Enzymes: Recombinant human LOXL2 (lysyl oxidase like 2) and recombinant human LOXL3 (lysyl oxidase like 3) were purchased from R&D systems and assays were performed in 1.2 M urea, 50 mM sodium borate buffer pH 8.0, and 10 mM CaCl.
Reaction: Final concentration in the LOXL2 and LOXL3 assays were as following and performed in a total volume of […]:
Experimental procedure: 5 μl of freshly prepared reaction buffer were delivered to reaction wells. Compounds were resuspended in 100% DMSO at 10 mM and delivered into buffer using acoustic technology (Echo550; nanoliter range). A 3× solution of LOXL2 or LOXL3 in reaction buffer was prepared (“enzyme solution”) and 5 μL of enzyme solution was added into the reaction wells. Buffer only was added to column 1 for no protein control. Reactions were incubated for 30 minutes at 37° C. A 3×mixture of cadaverine, Amplex Red, and HRP (“Substrate/Detection Mix) was prepared and subsequently 5 μL of the mixture added to each reaction well. Progress of reactions was monitored for 60 minutes at 37° C. using Clariostar plate reader (ex 530-12, ems 600-40). For all activity assays, pan-LOX inhibitor CCT365623 (Tang et al, 2017) and LOXL2/LOXL3 inhibitor PAT-1251 (PharmaKea) were included as standards.
Data analysis: Slope of the linear portion of the progress curve was calculated using Clariostar software. Typical analysis interval was between 8-30 min, but varied between experiments. The background subtracted signals (No protein wells are considered as background) were converted to % activity relative to DMSO controls. Data was analyzed using GraphPad Prism 4 with “sigmoidal dose-response (variable slope)”; 4 parameters with Hill Slope. Constraints: Bottom=Constant equal to 0. Top=Must be less than 120.

SMILES | pIC50 [1] | pIC50 [2]
CC(N)c1cccc(S(=O)(=O)N2C[C@H](C(=O)N3CCOCC3)C[C@@H](c3ccccc3)C2)c1 (mixture of isomers) [Example 102TR, trans-(1-((3-(1-Aminoethyl)phenyl)sulfonyl)-5-phenylpiperidin-3-yl)(morpholino)methanone 2,2,2-trifluoroacetate] | < 4.52 | < 4.52
CC(N)c1cccc(S(=O)(=O)N2C[C@H](C(=O)N3CCS(=O)(=O)CC3)C[C@@H](c3ccccc3)C2)c1 (mixture of isomers) [Example 106, trans-(1-((3-(1-Aminoethyl)phenyl)sulfonyl)-5-phenylpiperidin-3-yl) (1,1-dioxidothiomorpholino)methanone 2,2,2-trifluoroacetate] | < 4.52 | < 4.52
NCc1cccc(S(=O)(=O)N2C[C@H](C(=O)N3CCOCC3)C[C@@H](C(F)(F)F)C2)c1 (racemic) [Example 110] | < 4.52 | 4.52 to 6.00
NCc1cnc(S(=O)(=O)N2C[C@@H](C(=O)N3CCOCC3)C[C@@H](c3ccccc3)C2)s1 (racemic) [Example 111, cis-(1-((5-(Aminomethyl)thiazol-2-yl)sulfonyl)-5-phenylpiperidin-3-yl)(morpholino)methanone 2,2,2-trifluoroacetate] | < 4.52 | 6.00 to 6.30
NCc1cnc(S(=O)(=O)N2C[C@@H](C(=O)N3CCS(=O)(=O)CC3)C[C@@H](c3ccccc3)C2)s1 (racemic) [Example 112, cis-(1-((5-(Aminomethyl)thiazol-2-yl)sulfonyl)-5-phenylpiperidin-3-yl)(1,1-dioxidothiomorpholino)methanone 2,2,2-trifluoroacetate] | 4.52 to 6.00 | ≥ 6.30
NCc1cnc(S(=O)(=O)N2C[C@H](C(=O)N3CCS(=O)(=O)CC3)C[C@@H](c3ccccc3)C2)s1 (racemic) [Example 112T, trans-(1-((5-(Aminomethyl)thiazol-2-yl)sulfonyl)-5-phenylpiperidin-3-yl)(1,1-dioxidothiomorpholino)methanone 2,2,2-trifluoroacetate] | 4.52 to 6.00 | 6.00 to 6.30
CS(=O)(=O)N1CCN(C(=O)[C@H]2C[C@@H](c3ccccc3)CN(S(=O)(=O)c3ncc(CN)s3)C2)CC1 (racemic) [Example 113, cis-(1-((5-(Aminomethyl)thiazol-2-yl)sulfonyl)-5-phenylpiperidin-3-yl)(4-(methylsulfonyl)piperazin-1-yl)methanone 2,2,2-trifluoroacetate] | 4.52 to 6.00 | ≥ 6.30
CS(=O)(=O)N1CCN(C(=O)[C@@H]2C[C@@H](c3ccccc3)CN(S(=O)(=O)c3ncc(CN)s3)C2)CC1 (racemic) [Example 113T, trans-(1-((5-(Aminomethyl)thiazol-2-yl)sulfonyl)-5-phenylpiperidin-3-yl)(4-(methylsulfonyl)piperazin-1-yl)methanone 2,2,2-trifluoroacetate] | 4.52 to 6.00 | ≥ 6.30
CS(=O)(=O)N1CCN(C(=O)[C@@H]2C[C@@H](c3ccccc3)CN(S(=O)(=O)c3cccc(CN)n3)C2)CC1 (racemic) [Example 116T, trans-(1-((6-(Aminomethyl)pyridin-2-yl)sulfonyl)-5-phenylpiperidin-3-yl)(4-(methylsulfonyl)piperazin-1-yl)methanone 2,2,2-trifluoroacetate] | < 4.52 | 4.52 to 6.00
CS(=O)(=O)N1CCN(C(=O)[C@H]2C[C@@H](c3ccccc3)CN(S(=O)(=O)c3cccc(CN)n3)C2)CC1 (racemic) [Example 116] | < 4.52 | 4.52 to 6.00
NCc1ccc(S(=O)(=O)N2C[C@@H](C(=O)N3CCS(=O)(=O)CC3)C[C@@H](C3CCCCC3)C2)s1 (racemic) [Example 121, cis-(1-((5-(Aminomethyl)thiophen-2-yl)sulfonyl)-5-cyclohexylpiperidin-3-yl)(1,1-dioxidothiomorpholino)methanone 2,2,2-trifluoroacetate] | ≥ 6.30 | ≥ 6.30
NCc1cc(S(=O)(=O)N2C[C@@H](C(=O)N3CCS(=O)(=O)CC3)C[C@@H](c3ccccc3)C2)ccn1 (racemic) [Example 130, cis-(1-((2-(Aminomethyl)pyridin-4-yl)sulfonyl)-5-phenylpiperidin-3-yl)(1,1-dioxidothiomorpholino)methanone 2,2,2-trifluoroacetate] | 4.52 to 6.00 | 6.00 to 6.30
